The values that follow come from patent publication US8071764B2, “Compounds of reverse turn mimetics and the use thereof (2)” (Choongwae Pharma Corporation, priority 2008, dated 2011).

Read-outs that look alike come from different tables or passages of the source.

One data set relates to Wnt signaling. Nature of the data set: TopFlash reporter gene bioassay in SW480 cells. It is filed as cell-based. To be noted: Homo sapiens. The method, then: Inhibition activity against Wnt signaling was measured by the TopFlash reporter. The lower IC50 value means the higher inhibition activity.
TopFlash reporter gene Bioassay for the measurement of IC50 against SW480 cells
The test compound (Compound A) used in this example was prepared in Preparation Example 2. SW480 cells were transfected with the usage of Superfect™ transfect reagent (Qiagen, 301307). Cells were trypsinized briefly 1 day before transfection and plated on 6 well plate (5×10^5 cells/well) so that they were 50-80% confluent on the day of transfection.
Four microgram (TopFlash) and one microgram (pRL-null) of DNAs were diluted in 150 μl of serum-free medium, and 30 μl of Superfect™ transfect reagent was added. The DNA-Superfect mixture was incubated at room temperature for 15 min, and then, 1 ml of 10% FBS DMEM was added to this complex for an additional 3 hours of incubation. While complexes were forming, cells were washed with PBS twice without antibiotics.
The DNA-Superfect™ transfect reagent complexes were applied to the cells before incubating at 37° C. at 5% CO2 for 3 hours. After incubation, recovery medium with 10% FBS was added to bring the final volume to 1.18 ml. After 3 hours incubation, the cells were harvested and reseeded to a 96 well plate (3×10^4 cells/well). After overnight incubation at 37° C. at 5% CO2, the cells were treated with Compound A for 24 hours. […]
On the technique in general: In a reporter assay the amount or activity of a reporter protein is the signal.

The target of data set [1] is T1, cDNA-expressed human hepatic CYP3A4 (Homo sapiens, UniProt P08684).
T1 construct: purchased BD Gentest 456202
The experiment in a line: P450 CYP3A4 inhibitory activity screening (fluorescent assay, BFC substrate). Type of data set: in vitro ADME. The method, then:
Assay was conducted in a 200 μL volume in 96-well microtiter plates using cDNA-expressed human hepatic CYP3A4 (supersome, BD Gentest™ #456202). 7-Benzyloxy-4-trifluoromethyl-coumarin (BFC) was used as a substrate for CYP3A4. Test articles and substrate BFC were dissolved in 100% acetonitrile. The final volume of acetonitrile in the incubation mixture was less than 1% (volume/volume). Potassium phosphate buffer (pH 7.4, final concentration 0.1 M), MgCl2 (final concentration 8.3 mM), EDTA (final concentration 1.67 mM), a test article stock solution, a CYP3A4 supersome and NADPH (final concentration 0.25 mM) were added to each well. The reaction was initiated by the addition of substrate (BFC, final concentration 30 µM) after a 10 min pre-incubation at 37° C. After 10 min incubation at 37° C., the reaction was terminated by the addition of […] of acetonitrile:0.5 M Tris-base=4:1 (volume/volume). Thereafter, Fluorescent signal was measured using a fluorometer. BFC metabolite, 7-hydroxy-4-trifluoromethyl-coumarin, was measured using an excitation wavelength of 409 nm and an emission wavelength of 530 nm.

A further data set has as its system MV-4-11 cells. Nature of the data set: Cell growth inhibition assay on AML cancer cells. To be noted: Homo sapiens, MV4-11, 72 hours. It is filed as cell-based. The method, then:
Cell growth Inhibition assay was performed to investigate the rate of inhibition of cell proliferation by the test compounds. MV-4-11 (human, Acute Myeloid Leukemia cell line) cells were cultured in Iscove's modified Dulbecco's medium (IMDM) including 10% fetal bovine serum (FBS), 1× penicillin/streptomycin (10,000 units/ml Penicillin, […] Streptomycin in 0.85% NaCl). MV-4-11 cells were harvested with IMDM medium and 5×10^4 cells/well were transferred to each well of 96 well culture plates (Nunc, #167008). The test compounds were treated with the serial dilution and duplicated for each concentration. For the serial dilution, the test compounds were repeatedly diluted with the same volume of media onto 96-well assay block (costar, #3956). After the dilution, each compound was added to each well. The background absorbance was also measured during the test compounds treatment by adding the IMDM media in replacement of test compound to the negative control plate. The plates were incubated for 3 days (72 hours) at 37° C. in the humidified incubator containing 5% CO2. On the last day, 20 μL of CellTiter 96 Aqueous One Solution (Promega #G3581) was added to the culture in each well and the plates were incubated for a few hours at 37° C. in the humidified incubator containing 5% CO2. After the incubation, the absorbance of each cell was measured at 490 nm using an EnVision (Perkinelmer, USA). The […] values were calculated using a Prism 3.0 program.

Where [2] appears, read: MV-4-11 cells, FIG. 4, read-out: GI50.
The mark [3] stands for this setting: fluorescent assay, read-out: CYP3A4 inhibition, IC50 (μM) fluorescent assay.
The mark [4] stands for this setting: MV-4-11 AML cells, read-out: MV-4-11, GI50.

The IC50 is the point on the concentration scale where inhibition reaches its midpoint. By GI50 is commonly meant the concentration at which growth is held to half of that of the control.

T1 sequence (P08684 whole entry): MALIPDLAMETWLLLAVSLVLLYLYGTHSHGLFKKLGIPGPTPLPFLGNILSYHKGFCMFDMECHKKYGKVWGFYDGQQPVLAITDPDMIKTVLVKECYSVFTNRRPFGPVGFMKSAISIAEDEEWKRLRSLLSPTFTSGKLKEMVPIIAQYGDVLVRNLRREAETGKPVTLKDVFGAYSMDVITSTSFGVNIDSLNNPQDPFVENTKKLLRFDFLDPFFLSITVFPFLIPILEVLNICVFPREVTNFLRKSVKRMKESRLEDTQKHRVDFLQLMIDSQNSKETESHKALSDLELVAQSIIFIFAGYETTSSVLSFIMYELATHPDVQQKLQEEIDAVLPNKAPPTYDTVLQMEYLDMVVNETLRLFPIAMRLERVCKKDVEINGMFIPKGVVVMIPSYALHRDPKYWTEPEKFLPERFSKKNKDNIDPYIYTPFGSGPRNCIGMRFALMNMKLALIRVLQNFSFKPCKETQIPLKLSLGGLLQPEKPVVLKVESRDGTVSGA

Regarding `C=CCN1CC(=O)N2[C@@H](Cc3ccc(O)cc3)C(=O)N(Cc3ccc4nn(C)nc4c3)C[C@@H]2N1C(=O)NCc1ccccc1` [Compound A, 2-allyl-6-(4-hydroxy-benzyl)-8-(2-methyl-2H-benzotriazol-5-ylmethyl)-4,7-dioxo-hexahydro-pyrazino[2,1-c][1,2,4]triazine-1-carboxylic acid benzylamide], the half-maximal inhibitory concentration (IC50) in the data set on Wnt signaling (SW480 cells, TopFlash, 24 hours treatment, FIG. 3, read-out: IC50 of Compound A for SW480 cells) was determined as 1 ± 0.254 µM; in data set [1] (Table 6, FIG. 2, read-out: IC50 against CYP3A4 activity), 19.2 µM. For the same compound, the “inhibition of a CYP3A4 enzyme (in words)” value in data set [1] (FIG. 2) is listed as “weak inhibition”. In the data set on MV-4-11 cells (setting [2]), the 50% growth inhibitory concentration (GI50) was 262 nM.
Turning to `C=CCN1CC(=O)N2[C@@H](Cc3ccc(O)cc3)C(=O)N(Cc3cccc4c3nnn4CC(N)=O)C[C@@H]2N1C(=O)NCc1ccccc1` [Compound C], in the data set on MV-4-11 cells (setting [2]), the GI50 is 560 nM.
Regarding `C=CCN1CC(=O)N2[C@@H](Cc3ccc(O)cc3)C(=O)N(Cc3ccc4nn(C)nc4c3)C[C@@H]2N1C(=O)NCc1ccccc1` [compound 1], the half-inhibitory concentration (IC50) was determined as 1 ± 0.25 µM in the data set with Wnt signaling (SW480, TopFlash reporter gene assay, read-out: RGA, IC50 (μM) TopF) and 19.2 µM in data set [1] (setting [3]). In addition, the concentration for 50% growth inhibition (GI50) with MV-4-11 cells (setting [4]) is 260 nM.
In the case of `C=CCN1CC(=O)N2[C@@H](Cc3ccc(O)cc3)C(=O)N(Cc3cccc4nnn(CC(=O)O)c34)C[C@@H]2N1C(=O)NCc1ccccc1` [compound 3], the half-maximal inhibitory concentration (IC50) in data set [1] (setting [3]) is > 50 µM.
Consider `C=CCN1CC(=O)N2[C@@H](Cc3ccc(O)cc3)C(=O)N(Cc3cccc4nnn(CC(=O)OCC)c34)C[C@@H]2N1C(=O)NCc1ccccc1` [compound 3], for which, in the data set on MV-4-11 cells (setting [4]), the GI50 came to 710 nM.
For `C=CCN1CC(=O)N2[C@@H](Cc3ccc(O)cc3)C(=O)N(Cc3cccc4nnn(CC(=O)N5CCOCC5)c34)C[C@@H]2N1C(=O)NCc1ccccc1` [compound 4], in data set [1] (setting [3]), the IC50 is 6.23 µM. In the data set on MV-4-11 cells (setting [4]), the GI50 turned out to be 930 nM.
In the case of `C=CCN1CC(=O)N2[C@@H](Cc3ccc(O)cc3)C(=O)N(Cc3cccc4c3nnn4CC(=O)OCC)C[C@@H]2N1C(=O)NCc1ccccc1` [compound 5], the IC50 in data set [1] (setting [3]) is 7.4 µM.
Take `C=CCN1CC(=O)N2[C@@H](Cc3ccc(O)cc3)C(=O)N(Cc3cccc4nnn(CC(=O)N5CCN(C)CC5)c34)C[C@@H]2N1C(=O)NCc1ccccc1` [compound 5]: in the data set with MV-4-11 cells (setting [4]), the GI50 stood at 2970 nM.
As to `C=CCN1CC(=O)N2[C@@H](Cc3ccc(O)cc3)C(=O)N(Cc3cccc4c3nnn4CC(=O)O)C[C@@H]2N1C(=O)NCc1ccccc1` [compound 6], in data set [1] (setting [3]), the IC50 was > 50 µM.
Turning to `C=CCN1CC(=O)N2[C@@H](Cc3ccc(O)cc3)C(=O)N(Cc3cccc4c3nnn4CC(=O)OCC)C[C@@H]2N1C(=O)NCc1ccccc1` [compound 6], the GI50 with MV-4-11 cells (setting [4]) is 650 nM.
For `C=CCN1CC(=O)N2[C@@H](Cc3ccc(O)cc3)C(=O)N(Cc3cccc4c3nnn4CC(=O)N3CCOCC3)C[C@@H]2N1C(=O)NCc1ccccc1` [compound 7], in the data set on MV-4-11 cells (setting [4]), the GI50 is 370 nM.
Consider `C=CCN1CC(=O)N2[C@@H](Cc3ccc(O)cc3)C(=O)N(Cc3cccc4nnn(CC(=O)N(C)C)c34)C[C@@H]2N1C(=O)NCc1ccccc1` [compound 7], for which the half-maximal inhibitory concentration (IC50) in data set [1] (setting [3]) worked out at 41.1 µM.
In the case of `C=CCN1CC(=O)N2[C@@H](Cc3ccc(O)cc3)C(=O)N(Cc3cccc4nnn(CC(=O)N(C)C)c34)C[C@@H]2N1C(=O)NCc1ccccc1` [compound 8], the GI50 with MV-4-11 cells (setting [4]) amounted to 1920 nM.
Regarding `C=CCN1CC(=O)N2[C@@H](Cc3ccc(O)cc3)C(=O)N(Cc3cccc4nnn(CC(=O)NCCOC)c34)C[C@@H]2N1C(=O)NCc1ccccc1` [compound 8], the 50% inhibitory concentration (IC50) in data set [1] (setting [3]) is 46.9 µM.
Turning to `C=CCN1CC(=O)N2[C@@H](Cc3ccc(O)cc3)C(=O)N(Cc3cccc4c3nnn4CC(=O)N(C)C)C[C@@H]2N1C(=O)NCc1ccccc1` [compound 9], the concentration for half-maximal inhibition (IC50) in data set [1] (setting [3]) is 38 µM.
Take `C=CCN1CC(=O)N2[C@@H](Cc3ccc(O)cc3)C(=O)N(Cc3cccc4nnn(CC(=O)NCCOC)c34)C[C@@H]2N1C(=O)NCc1ccccc1` [compound 9]: the 50% growth inhibitory concentration (GI50) in the data set on MV-4-11 cells (setting [4]) came to 1850 nM.
For `C=CCN1CC(=O)N2[C@@H](Cc3ccc(O)cc3)C(=O)N(Cc3cccc4c3nnn4CC(N)=O)C[C@@H]2N1C(=O)NCc1ccccc1` [compound 12], the 50% growth inhibitory concentration (GI50) with MV-4-11 cells (setting [4]) was found to be 560 nM.
Regarding `C=CCN1CC(=O)N2[C@@H](Cc3ccc(O)cc3)C(=O)N(Cc3cccc4nnn(CC(N)=O)c34)C[C@@H]2N1C(=O)NCc1ccccc1` [compound 12], the half-maximal inhibitory concentration (IC50) in data set [1] (setting [3]) is 33.2 µM.
In the case of `C=CCN1CC(=O)N2[C@@H](Cc3ccc(O)cc3)C(=O)N(Cc3cccc4c3nnn4CC(=O)NC)C[C@@H]2N1C(=O)NCc1ccccc1` [compound 13], the IC50 in data set [1] (setting [3]) stood at 32.4 µM.
In the case of `C=CCN1CC(=O)N2[C@@H](Cc3ccc(O)cc3)C(=O)N(Cc3cccc4nnn(CC(N)=O)c34)C[C@@H]2N1C(=O)NCc1ccccc1` [compound 13], the GI50 in the data set with MV-4-11 cells (setting [4]) amounted to 3270 nM.
As to `C=CCN1CC(=O)N2[C@@H](Cc3ccc(O)cc3)C(=O)N(Cc3cccc4c3nnn4CC(=O)NCc3ccncc3)C[C@@H]2N1C(=O)NCc1ccccc1` [compound 14], the GI50 in the data set with MV-4-11 cells (setting [4]) is 600 nM.
Still for that read-out and setting: for `C=CCN1CC(=O)N2[C@@H](Cc3ccc(O)cc3)C(=O)N(Cc3cccc4c3nnn4CC(=O)NC)C[C@@H]2N1C(=O)NCc1ccccc1` [compound 15] the value was 180 nM.
